Laboratory results as given in ChEMBL document CHEMBL1697692, “Developing structure-activity relationships for the prediction of hepatotoxicity” (Chem Res Toxicol, 2010).
Numbered stars: 1 amine (or outer) side, 2 acyl side, 3 side chain; on linkers, the order of the positions; unused ones are H or OH. Bridge positions count the residues as written; N and C are the ends. Square brackets hold non-standard residues; d marks the D form. Peptide text beside a SMILES is read from it. Adda = CO[C@@H](Cc1ccccc1)[C@@H](C)/C=C(C)/C=C/[C@H](N[*:1])[C@H](C)C(=O)[*:2]; dAsp(3S-Me) = C[C@H](C(=O)[*:3])[C@@H](N[*:1])C(=O)[*:2]; d(γGlu) = O=C(O)[C@@H](CCC(=O)[*:2])N[*:1]; NMeDha = C=C(NC)C(=O)O

system: Hepatotoxicity; assay: Literature-mined public compounds from Greene et al multi-species hepatotoxicity modelling dataset

Row | SMILES | Hepatotoxicity
1 | CN1CCCCC1CCN1c2ccccc2Sc2ccc([S+](C)[O-])cc21.O=S(=O)(O)c1ccccc1 (stereo not drawn) [MESORIDAZINE BESYLATE] | HH: Evidence of human hepatotoxicity
2 | C#C[C@]1(O)CC[C@H]2[C@@H]3CCc4cc(OC)ccc4[C@H]3CC[C@@]21C [MESTRANOL] | HH: Evidence of human hepatotoxicity
3 | CC(=O)Nc1cccc(O)c1 [METACETAMOL] | WE: Weak evidence (<10 case reports) of human hepatotoxicity
4 | CC(C)NCC(O)c1cc(O)cc(O)c1.CC(C)NCC(O)c1cc(O)cc(O)c1.O=S(=O)(O)O (stereo not drawn) [METAPROTERENOL SULFATE] | HH: Evidence of human hepatotoxicity
5 | CN(C)C(=N)N=C(N)N [METFORMIN] | WE: Weak evidence (<10 case reports) of human hepatotoxicity
6 | C=C1c2cccc(O)c2C(=O)C2=C(O)[C@]3(O)C(=O)C(C(N)=O)=C(O)[C@@H](N(C)C)[C@@H]3[C@@H](O)[C@H]12.Cl [METHACYCLINE HYDROCHLORIDE] | HH: Evidence of human hepatotoxicity
7 | CN(Cc1cnc2nc(N)nc(N)c2n1)c1ccc(C(=O)N[C@@H](CCC(=O)O)C(=O)O)cc1 [METHOTREXATE] | HH: Evidence of human hepatotoxicity
8 | COc1ccc(OC)c(C(O)C(C)N)c1.Cl (stereo not drawn) [METHOXAMINE HYDROCHLORIDE] | NE: No evidence of hepatotoxicity in any species
9 | COCC(=O)O [METHOXYACETIC ACID] | AH: Evidence for animal hepatotoxicity but not tested in humans
10 | C[C@](N)(Cc1ccc(O)c(O)c1)C(=O)O [METHYLDOPA] | HH: Evidence of human hepatotoxicity
11 | CC[C@@H](CO)NC(=O)[C@@H]1C=C2c3cccc4[nH]cc(c34)C[C@H]2N(C)C1.O=C(O)/C=C\C(=O)O [METHYLERGONOVINE MALEATE] | NE: No evidence of hepatotoxicity in any species
12 | COC(=O)C(c1ccccc1)C1CCCCN1 (stereo not drawn) [METHYLPHENIDATE] | HH: Evidence of human hepatotoxicity
13 | CC[C@@H](CO)NC(=O)[C@@H]1C=C2c3cccc4c3c(cn4C)C[C@H]2N(C)C1.O=C(O)/C=C\C(=O)O [METHYSERGIDE MALEATE] | NE: No evidence of hepatotoxicity in any species
14 | Cc1ccccc1N1C(=O)c2cc(S(N)(=O)=O)c(Cl)cc2NC1C (stereo not drawn) [METOLAZONE] | HH: Evidence of human hepatotoxicity
15 | Cc1ncc([N+](=O)[O-])n1CCO [METRONIDAZOLE] | HH: Evidence of human hepatotoxicity
16 | CC1(C)S[C@@H]2[C@H](NC(=O)[C@H](NC(=O)N3CCN(S(C)(=O)=O)C3=O)c3ccccc3)C(=O)N2[C@H]1C(=O)[O-].[Na+] [MEZLOCILLIN SODIUM] | HH: Evidence of human hepatotoxicity
17 | CN1CCN2c3ccccc3Cc3ccccc3C2C1 (stereo not drawn) [MIANSERIN] | HH: Evidence of human hepatotoxicity
18 | COCC(=O)O[C@]1(CCN(C)CCCc2nc3ccccc3[nH]2)CCc2cc(F)ccc2[C@@H]1C(C)C [MIBEFRADIL] | NE: No evidence of hepatotoxicity in any species
19 | Clc1ccc(COC(Cn2ccnc2)c2ccc(Cl)cc2Cl)c(Cl)c1 (stereo not drawn) [MICONAZOLE] | NE: No evidence of hepatotoxicity in any species
20 | C=C1C(=O)N[C@H](C)C(=O)N[C@@H](CC(C)C)C(=O)N[C@@H](C(=O)O)[C@H](C)C(=O)N[C@@H](CCCNC(=N)N)C(=O)N[C@@H](/C=C/C(C)=C/[C@H](C)[C@H](Cc2ccccc2)OC)[C@H](C)C(=O)N[C@@H](C(=O)O)CCC(=O)N1C [MICROCYSTIN-LR] (R[Adda][d(γGlu)][NMeDha][dA]L[dAsp(3S-Me)]-OH; lactam N-7) | AH: Evidence for animal hepatotoxicity but not tested in humans

Row | SMILES | Hepatotoxicity
21 | CN(C)c1ccc(O)c2c1C[C@H]1C[C@H]3[C@H](N(C)C)C(O)=C(C(N)=O)C(=O)[C@@]3(O)C(O)=C1C2=O.Cl [MINOCYCLINE HYDROCHLORIDE] | HH: Evidence of human hepatotoxicity
22 | Cl.Cl.O=C1c2c(O)ccc(O)c2C(=O)c2c(NCCNCCO)ccc(NCCNCCO)c21 [MITOXANTRONE HYDROCHLORIDE] | HH: Evidence of human hepatotoxicity
23 | CCc1c(C)[nH]c2c1C(=O)C(CN1CCOCC1)CC2.Cl (stereo not drawn) [MOLINDONE HYDROCHLORIDE] | HH: Evidence of human hepatotoxicity
24 | C[C@@H]1C[C@H]2[C@@H]3CCC4=CC(=O)C=C[C@]4(C)[C@@]3(Cl)[C@@H](O)C[C@]2(C)[C@@]1(OC(=O)c1ccco1)C(=O)CCl [MOMETASONE FUROATE] | NE: No evidence of hepatotoxicity in any species
25 | C[C@H]1C(=O)O[C@@H]2CCN3CC=C(COC(=O)[C@](C)(O)[C@]1(C)O)[C@H]23 [MONOCROTALINE] | AH: Evidence for animal hepatotoxicity but not tested in humans
26 | CC(C)(O)c1ccccc1CC[C@@H](SCC1(CC(=O)O)CC1)c1cccc(/C=C/c2ccc3ccc(Cl)cc3n2)c1 [MONTELUKAST] | WE: Weak evidence (<10 case reports) of human hepatotoxicity
27 | CCOC(=O)Nc1ccc2c(c1)N(C(=O)CCN1CCOCC1)c1ccccc1S2.Cl [MORICIZINE HYDROCHLORIDE] | HH: Evidence of human hepatotoxicity
28 | CO[C@@]1(NC(=O)C(C(=O)[O-])c2ccc(O)cc2)C(=O)N2C(C(=O)[O-])=C(CSc3nnnn3C)CO[C@@H]21.[Na+].[Na+] (stereo partly drawn) [MOXALACTAM DISODIUM] | NE: No evidence of hepatotoxicity in any species
29 | CN(C)N=O [N-NITROSODIMETHYLAMINE] | AH: Evidence for animal hepatotoxicity but not tested in humans
30 | CC(C)(C)NCC(O)COc1cccc2c1CC(O)C(O)C2 (stereo not drawn) [NADOLOL] | NE: No evidence of hepatotoxicity in any species
31 | CCOc1ccc2ccccc2c1C(=O)N[C@@H]1C(=O)N2[C@@H]1SC(C)(C)[C@@H]2C(=O)[O-].O.[Na+] [NAFCILLIN SODIUM] | WE: Weak evidence (<10 case reports) of human hepatotoxicity
32 | CCn1cc(C(=O)O)c(=O)c2ccc(C)nc21 [NALIDIXIC ACID] | HH: Evidence of human hepatotoxicity
33 | O=C1CC[C@@]2(O)[C@H]3Cc4ccc(O)c5c4[C@@]2(CCN3CC2CC2)[C@H]1O5 [NALTREXONE] | HH: Evidence of human hepatotoxicity
34 | COc1ccc2cc([C@H](C)C(=O)O)ccc2c1 [NAPROXEN] | WE: Weak evidence (<10 case reports) of human hepatotoxicity
35 | CCc1nn(CCCN2CCN(c3cccc(Cl)c3)CC2)c(=O)n1CCOc1ccccc1 [NEFAZODONE] | HH: Evidence of human hepatotoxicity
36 | COC(=O)C1=C(C)NC(C)=C(C(=O)OCCN(C)Cc2ccccc2)C1c1cccc([N+](=O)[O-])c1.Cl (stereo not drawn) [NICARDIPINE HYDROCHLORIDE] | HH: Evidence of human hepatotoxicity
37 | COC(=O)C1=C(C)NC(C)=C(C(=O)OC)C1c1ccccc1[N+](=O)[O-] [NIFEDIPINE] | HH: Evidence of human hepatotoxicity
38 | COCCOC(=O)C1=C(C)NC(C)=C(C(=O)OC(C)C)C1c1cccc([N+](=O)[O-])c1 (stereo not drawn) [NIMODIPINE] | HH: Evidence of human hepatotoxicity
39 | COC(=O)C1=C(C)NC(C)=C(C(=O)OCC(C)C)C1c1ccccc1[N+](=O)[O-] (stereo not drawn) [NISOLDIPINE] | NE: No evidence of hepatotoxicity in any species
40 | O=C1CN(/N=C/c2ccc([N+](=O)[O-])o2)C(=O)N1 [NITROFURANTOIN] | HH: Evidence of human hepatotoxicity

Row | SMILES | Hepatotoxicity
41 | COC(=O)Nc1nc2ccc(C(=O)c3cccs3)cc2[nH]1 [NOCODAZOLE] | NE: No evidence of hepatotoxicity in any species
42 | CN1Cc2c(N)cccc2C(c2ccccc2)C1 (stereo not drawn) [NOMIFENSINE] | HH: Evidence of human hepatotoxicity
43 | C#CC1(O)CC[C@H]2[C@@H]3CCC4=CC(=O)CC[C@@H]4[C@H]3CC[C@@]21CC (stereo partly drawn) [NORGESTREL] | HH: Evidence of human hepatotoxicity
44 | CNCCC=C1c2ccccc2CCc2ccccc21.Cl [NORTRIPTYLINE HYDROCHLORIDE] | HH: Evidence of human hepatotoxicity
45 | CO[C@@H]1[C@@H](OC(N)=O)[C@@H](O)[C@H](Oc2ccc3c(O)c(NC(=O)c4ccc(O)c(CC=C(C)C)c4)c(=O)oc3c2C)OC1(C)C [NOVOBIOCIN] | HH: Evidence of human hepatotoxicity
46 | CCCCC(CC)COC(=O)C=Cc1ccc(OC)cc1 (stereo not drawn) [OCTINOXATE] | HH: Evidence of human hepatotoxicity
47 | Cc1ccccc1C(OCCN(C)C)c1ccccc1.O=C(O)CC(O)(CC(=O)O)C(=O)O (stereo not drawn) [ORPHENADRINE CITRATE] | NE: No evidence of hepatotoxicity in any species
48 | O=C(O)CCc1nc(-c2ccccc2)c(-c2ccccc2)o1 [OXAPROZIN] | HH: Evidence of human hepatotoxicity
49 | CCCOc1ccc2nc(NC(=O)OC)[nH]c2c1 [OXIBENDAZOLE] | AH: Evidence for animal hepatotoxicity but not tested in humans
50 | CC[N+](C)(CC)CCOC(=O)C(O)(c1ccccc1)C1CCCCC1 (stereo not drawn) [OXYPHENONIUM] | NE: No evidence of hepatotoxicity in any species
51 | O=S(=O)(O)O.Oc1cccc2cccnc12.Oc1cccc2cccnc12 [OXYQUINOLINE SULFATE] | HH: Evidence of human hepatotoxicity
52 | CC(=O)O[C@H]1C(=O)[C@@]2(C)[C@H]([C@H](OC(=O)c3ccccc3)[C@]3(O)C[C@H](OC(=O)[C@H](O)[C@@H](NC(=O)c4ccccc4)c4ccccc4)C(C)=C1C3(C)C)[C@]1(OC(C)=O)CO[C@@H]1C[C@@H]2O [PACLITAXEL] | HH: Evidence of human hepatotoxicity
53 | NCCC(O)(P(=O)(O)O)P(=O)(O)O [PAMIDRONIC ACID] | NE: No evidence of hepatotoxicity in any species
54 | C#CCN(C)Cc1ccccc1 [PARGYLINE] | NE: No evidence of hepatotoxicity in any species
55 | NC[C@@H]1O[C@H](O[C@H]2[C@@H](O)[C@H](O[C@@H]3[C@@H](O)[C@H](N)C[C@H](N)[C@H]3O[C@H]3O[C@H](CO)[C@@H](O)[C@H](O)[C@H]3N)O[C@@H]2CO)[C@H](N)[C@@H](O)[C@@H]1O.O=S(=O)(O)O [PAROMOMYCIN SULFATE] | NE: No evidence of hepatotoxicity in any species
56 | Fc1ccc([C@@H]2CCNC[C@H]2COc2ccc3c(c2)OCO3)cc1 [PAROXETINE] | WE: Weak evidence (<10 case reports) of human hepatotoxicity
57 | NC1=NC(=O)C(c2ccccc2)O1 (stereo not drawn) [PEMOLINE] | HH: Evidence of human hepatotoxicity
58 | CC(C)(C)NC[C@H](O)COc1ccccc1C1CCCC1.CC(C)(C)NC[C@H](O)COc1ccccc1C1CCCC1.O=S(=O)(O)O [PENBUTOLOL SULFATE] | HH: Evidence of human hepatotoxicity
